Reference: patent US20260285853A1, “COMPOUNDS AND METHODS FOR MODULATING SPLICING” (REMIX THERAPEUTICS INC., priority 2023, published 2026)
Read-outs that look alike come from different tables or passages of the source.

What was measured:
Assay type in all cases: cell-based
[1] = tested on: HTT mRNA; assay: Splicing RT-qPCR assay (THP), Table 2A
[2] = tested on: MYB mRNA; assay: Splicing RT-qPCR assay (THP), Table 2A
[3] = tested on: SH-SY5Y (human neuroblastoma) cells; assay: Cell viability, Cell Titer Glo 2.0 assay; settings: read-out: Viability SHSY5Y.3 GI50
Procedure, shortened: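 Following a 72 h incubation (37 °C, 5% CO2, 0.1% DMSO final), compound toxicity toward SH-SY5Y cells was quantified by CellTiter-Glo 2.0.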

[4] = tested on: HTT mRNA; assay: Gene panel canonical junction qPCR assay, decrease in CJ mRNA, Table 3
Procedure, shortened: (§1)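 Eleven-point dose responses from 10 uM final, 24 h, DMSO ≤0.25%, in A673 or K562 cells. Relative quantification by 2^(−ΔΔCt) against housekeeper and vehicle was converted to percent response over fixed ΔCt windows and fitted to yield IC50.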

[5] = tested on: MYB mRNA; assay: as above
Procedure, shortened: as §1

[6] = Table 2A (THP), AJ mRNA increase, read-out: HTT AJ (increase in alternative junction mRNA, AC50)
[7] = Table 2A (THP), CJ mRNA decrease, read-out: HTT CJ (decrease in canonical junction mRNA, IC50)
[8] = Table 2A (THP), AJ mRNA increase, read-out: MYB AJ (increase in alternative junction mRNA, AC50)
[9] = Table 2A (THP), CJ mRNA decrease, read-out: MYB CJ (decrease in canonical junction mRNA, IC50)
[10] = decrease in canonical junction (CJ) mRNA, gene panel qPCR, Table 3
[11] = Table 2A, THP, HTT alternative junction (AJ) mRNA, read-out: HTT AJ (AC50, increase in alternative junction mRNA)
[12] = Table 2A, THP, HTT canonical junction (CJ) mRNA, read-out: HTT CJ (IC50, decrease in canonical junction mRNA)
[13] = Table 2A, THP, MYB alternative junction (AJ) mRNA, read-out: MYB AJ (AC50, increase in alternative junction mRNA)
[14] = Table 2A, THP, MYB canonical junction (CJ) mRNA, read-out: MYB CJ (IC50, decrease in canonical junction mRNA)
[15] = decrease in CJ mRNA levels, canonical junction qPCR, gene panel

| SMILES | AC50 [1, 6] | IC50 [1, 7] | AC50 [2, 8] | IC50 [2, 9] | GI50 [3] | IC50 [4, 10] | IC50 [5, 10] | AC50 [1, 11] | IC50 [1, 12] | AC50 [2, 13] | IC50 [2, 14] | IC50 [4, 15] | IC50 [5, 15] |
| --- | --- | --- | --- | --- | --- | --- | --- | --- | --- | --- | --- | --- | --- |
| COc1cnncc1NC(=O)c1c(F)cc(N2CCC(NC3CC3)CC2)c2cn(C)nc12 [Compound 421, 4-[4-(cyclopropylamino)-1-piperidyl]-6-fluoro-N-(5-methoxypyridazin-4-yl)-2-methyl-indazole-7-carbox-amide] | > 10 µM | > 10 µM | > 10 µM | > 10 µM | 1 to 10 µM | > 10 µM | > 10 µM | – | – | – | – | – | – |
| Cc1cn2cc(NC(=O)c3ccc(NC(=O)C4CCCN4)c4[nH]cnc34)cc(F)c2n1 (stereo not drawn) [Compound 613, N-(8-fluoro-2-methyl-imidazo[1,2-a]pyridin-6-yl)-7-(pyrrolidine-2-carbonylamino)-1H-benzimidazole-4-carboxamide] | – | – | – | – | > 10 µM | – | – | > 10 µM | 1 to 10 µM | 1 to 10 µM | 1 to 10 µM | 1 to 10 µM | 1 to 10 µM |
| Cc1cn2cc(NC(=O)c3ccc(NC4CCCNCC4)c4cn(C)nc34)nc2c(C)n1 (stereo not drawn) [Compound 536] | > 10 µM | > 10 µM | > 10 µM | > 10 µM | > 10 µM | > 10 µM | > 10 µM | – | – | – | – | – | – |
| COc1cc2nn(C)cc2cc1NC(=O)c1ccc(OC2CCNC2)c2cn(C)nc12 (stereo not drawn) [Compound 567] | 1 to 10 µM | 0.1 to 1 µM | 0.1 to 1 µM | 0.1 to 1 µM | 1 to 10 µM | 0.1 to 1 µM | 0.1 to 1 µM | – | – | – | – | – | – |
| COc1nc2c(C(=O)Nc3cc(F)c4nn(C)cc4c3)ccc(N3CC(C)NCC3C)c2s1 (stereo not drawn) [Compound 772, 7-(2,5-dimethylpiperazin-1-yl)-N-(7-fluoro-2-methyl-indazol-5-yl)-2-methoxy-1,3-benzothiazole-4-carboxamide] | – | – | – | – | 1 to 10 µM | – | – | > 10 µM | > 10 µM | 0.1 to 1 µM | 1 to 10 µM | > 10 µM | 1 to 10 µM |
| CCNC1CCN(c2ccc(C(=O)Nc3nc4c(C)nc(C)cc4n3C)c3nn(C)cc23)CC1 [Compound 583, 4-[4-(ethylamino)-1-piperidyl]-2-methyl-N-(1,4,6-trimethyl-imidazo[4,5-c]pyridin-2-y1)-indazole-7-carboxamide] | 1 to 10 µM | 1 to 10 µM | > 10 µM | > 10 µM | > 10 µM | 1 to 10 µM | > 10 µM | – | – | – | – | – | – |
| CCOc1cc2nn(C)cc2cc1NC(=O)c1c(F)cc(N2CCC(NC3CC3)CC2)c2cn(C)nc12 [Compound 415, 4-[4-(cyclopropyl-amino)-1-piperidyl]-N-(6-ethoxy-2-methylindazol-5-yl)-6-fluoro-2-methylindazole-7-carboxamide] | 0.1 to 1 µM | 0.1 to 1 µM | < 0.1 µM | < 0.1 µM | 0.1 to 1 µM | 0.1 to 1 µM | < 0.1 µM | – | – | – | – | – | – |
| COc1nc2c(C(=O)Nc3cc(C#N)c4nc(C)cn4c3)ccc(N3C[C@H](C)N[C@@H](C)C3)c2s1 [Compound 758, N-(8-cyano-2-methyl-imidazo[1,2-a]pyridin-6-yl)-7-[(3S,5S)-3,5-dimethylpiperazin-1-yl]-2-methoxy-1,3-benzothiazole-4-carboxamide] | – | – | – | – | 0.1 to 1 µM | – | – | > 10 µM | > 10 µM | < 0.1 µM | < 0.1 µM | > 10 µM | < 0.1 µM |
| Cc1cn2cc(NC(=O)c3c(C4CC4)cc(N4CCC(NC5CC5)CC4)c4cn(C)nc34)nc2c(C)n1 [Compound 474, 6-cyclopropyl-4-[4-(cyclopropylamino)-1-piperidyl]-N-(6,8-dimethyl-imidazo[1,2-a]-pyrazin-2-yl)-2-methyl-indazole-7-carboxamide] | > 10 µM | > 10 µM | > 10 µM | > 10 µM | 1 to 10 µM | > 10 µM | > 10 µM | – | – | – | – | – | – |
| Cc1cn2cc(NC(=O)c3ccc(N4CCCC(OC5CNC5)C4)c4cn(C)nc34)nc2c(C)n1 (stereo not drawn) [Compound 601] | – | – | – | – | > 10 µM | > 10 µM | > 10 µM | > 10 µM | > 10 µM | 1 to 10 µM | > 10 µM | – | – |
| Cc1cn2cc(NC(=O)c3ccc(N4CCC(NC5CC5)CC4)c4cn(C)nc34)nc2c(CCN(C)C)n1 [Compound 776] | – | – | – | – | 1 to 10 µM | – | – | > 10 µM | > 10 µM | > 10 µM | > 10 µM | > 10 µM | > 10 µM |
| Cc1cn2cc(NC(=O)c3ccc(N4CCC(NC5CC5)CC4)c4cn(C)nc34)nc2c(CO)n1 [Compound 846, 4-[4-(cyclopropylamino)-1-piperidyl]-N-[8-(hydroxymethyl)-6-methyl-imidazo[1,2-a]pyrazin-2-yl]-2-methyl-indazole-7-carboxamide] | – | – | – | – | 0.1 to 1 µM | – | – | 0.1 to 1 µM | 0.1 to 1 µM | 0.1 to 1 µM | 0.1 to 1 µM | 0.1 to 1 µM | 0.1 to 1 µM |
| COc1nc2c(C(=O)Nc3cc(CNS(C)(=O)=O)c4nn(C)cc4c3)ccc(N3CCC(NC4CC4)CC3)c2s1 [Compound 843] | – | – | – | – | > 10 µM | – | – | > 10 µM | > 10 µM | > 10 µM | > 10 µM | > 10 µM | > 10 µM |
| COc1cc2nn(C)cc2cc1NC(=O)c1c(C2CC2)cc(N2CCC(NC3CC3)CC2)c2cn(C)nc12 [Compound 466, 6-cyclopropyl-4-[4-(cyclopropylamino)-1-piperidyl]-N-(6-methoxy-2-methyl-indazol-5-yl)-2-methyl-indazole-7-carboxamide] | > 10 µM | > 10 µM | > 10 µM | > 10 µM | 1 to 10 µM | > 10 µM | > 10 µM | – | – | – | – | – | – |
| Cc1cc2c(nc(NC(=O)c3ccc(N4CCC(NC5CC5)CC4)c4cn(C)nc34)n2C)c(C)n1 [Compound 597, 4-[4-(cyclopropylamino)-1-piperidyl]-2-methyl-N-(1,4,6-trimethylimidazo[4,5-c]-pyridin-2-yl)indazole-7-carboxamide] | > 10 µM | > 10 µM | > 10 µM | > 10 µM | 1 to 10 µM | > 10 µM | > 10 µM | – | – | – | – | – | – |
| Cc1cn2cc(NC(=O)c3ccc(N4CCC(NC5CC5)CC4)c4cn(C)nc34)nc(CNS(C)(=O)=O)c2n1 [Compound 837, 4-[4-(cyclopropylamino)-1-piperidyl]-N-[8-(methanesulfonamidomethyl)-2-methyl-imidazo[1,2-a]pyrazin-6-yl]-2-methyl-indazole-7-carboxamide] | – | – | – | – | 0.1 to 1 µM | – | – | 1 to 10 µM | 1 to 10 µM | < 0.1 µM | < 0.1 µM | 1 to 10 µM | < 0.1 µM |
| COc1nc2c(C(=O)Nc3cc(F)c4nn(C)nc4c3)ccc(N3C[C@H](C)N[C@@H](C)C3)c2s1 [Compound 756, 7-[(3S,5S)-3,5-dimethylpiperazin-1-yl]-N-(7-fluoro-2-methyl-benzotriazol-5-yl)-2-methoxy-1,3-benzothiazole-4-carboxamide] | – | – | – | – | < 0.1 µM | – | – | 0.1 to 1 µM | 0.1 to 1 µM | < 0.1 µM | < 0.1 µM | 0.1 to 1 µM | < 0.1 µM |
| Cc1cn2cc(NC(=O)c3c(F)cc(N4CCC(NC5CC5)CC4)c4cn(C)nc34)cc(Oc3ccccn3)c2n1 [Compound 399] | 1 to 10 µM | 1 to 10 µM | < 0.1 µM | 0.1 to 1 µM | 0.1 to 1 µM | 1 to 10 µM | 0.1 to 1 µM | – | – | – | – | – | – |
| COc1nnccc1NC(=O)c1c(F)cc(N2CCC(NC3CC3)CC2)c2cn(C)nc12 [Compound 413, 4-[4-(cyclopropylamino)-1-piperidyl]-6-fluoro-N-(3-methoxypyridazin-4-yl)-2-methyl-indazole-7-carboxamide] | > 10 µM | 1 to 10 µM | 1 to 10 µM | > 10 µM | 1 to 10 µM | 1 to 10 µM | > 10 µM | – | – | – | – | – | – |
| COc1cc2nn(C)cc2cc1NC(=O)c1ccc(N2CC3CNCC3C2)c2cn(C)nc12 (stereo not drawn) [Compound 514] | 1 to 10 µM | 1 to 10 µM | 0.1 to 1 µM | 0.1 to 1 µM | > 10 µM | 1 to 10 µM | 0.1 to 1 µM | – | – | – | – | – | – |
| Cc1cn2cc(NC(=O)c3ccc(N4CCC(NC5CC5)CC4)c4cn(C)nc34)nc2c(-c2cnsc2)n1 [Compound 492, 4-[4-(cyclopropylamino)-1-piperidyl]-N-(8-isothiazol-4-yl-6-methyl-imidazo[1,2-a]-pyrazin-2-yl)-2-methyl-indazole-7-carboxamide] | > 10 µM | > 10 µM | > 10 µM | > 10 µM | > 10 µM | > 10 µM | > 10 µM | – | – | – | – | – | – |
